Assay results: patent publication US8883841B2, “Oncogenic ras-specific cytotoxic compound and methods of use thereof” (The Board of Regents of the University of Texas System, priority 2005, dated 2014)

Tests used:
[1] = tested on: panel of 60 cancer cell lines; test: NCI Developmental Therapeutics Program in-vitro testing, panel of 60 cancer cell lines (whole panel); format: cell-based; conditions: leukemia, non small lung, colon, melanoma, ovarian, renal, breast
[2] = tested on: SR; test: NCI in-vitro testing, SR (Leukemia); format: cell-based
[3] = tested on: M14; test: NCI in-vitro testing, M14 (Melanoma)
[4] = tested on: U251; test: NCI in-vitro testing, U251 (CNS Cancer)
[5] = tested on: SK-MEL-2; test: NCI in-vitro testing, SK-MEL-2 (Melanoma)
[6] = tested on: 786-0; test: NCI in-vitro testing, 786-0 (Renal Cancer)
[7] = tested on: SN12C; test: NCI in-vitro testing, SN12C (Renal Cancer)
[8] = tested on: CAKI-1; test: NCI in-vitro testing, CAKI-1 (Renal Cancer); conditions: for Percent Growth: CAK1-1
[9] = tested on: RXF 393; test: NCI in-vitro testing, RXF 393 (Renal Cancer)
[10] = tested on: BT-549; test: NCI in-vitro testing, BT-549 (Breast Cancer)
[11] = tested on: COLO 205; test: NCI in-vitro testing, COLO 205 (Colon Cancer)
[12] = tested on: HCC-2998; test: NCI in-vitro testing, HCC-2998 (Colon Cancer)
[13] = tested on: OVCAR-5; test: NCI in-vitro testing, OVCAR-5 (Ovarian Cancer)
[14] = tested on: SK-OV-3; test: NCI in-vitro testing, SK-OV-3 (Ovarian Cancer)
[15] = tested on: DU-145; test: NCI in-vitro testing, DU-145 (Prostate Cancer)

## O=Cc1cn(Cc2cccc(Cl)c2)c2ccccc12 [Oncrasin K027, 1-(3-chlorobenzyl)-1H-indole-3-carbaldehyde]
[1]
  anticancer spectrum in NCI panel: active in a number of cancer cell lines
[2]
  TGI: 4.26E−8 Molar
[2]; Homo sapiens
  GI50: < 0.01 µM
[2]; Log10 Concentration −4.0 Molar
  Percent Growth: −71%
[2]; Log10 Concentration −5.0 Molar
  Percent Growth: −18%
[2]; Log10 Concentration −6.0 Molar
  Percent Growth: −71%
[2]; Log10 Concentration −7.0 Molar
  Percent Growth: −25%
[2]; Log10 Concentration −8.0 Molar
  Percent Growth: 43%
[3]; Homo sapiens, M14
  GI50: 5.16 µM
[3]; Homo sapiens, M14, read-out: LC50
  CC50: 55.9 µM
[3]; M14
  TGI: 2.03E−5 Molar
[3]; M14, Log10 Concentration −4.0 Molar
  Percent Growth: −79%
[3]; M14, Log10 Concentration −5.0 Molar
  Percent Growth: 35%
[3]; M14, Log10 Concentration −6.0 Molar
  Percent Growth: 87%
[3]; M14, Log10 Concentration −7.0 Molar
  Percent Growth: 94%
[3]; M14, Log10 Concentration −8.0 Molar
  Percent Growth: 95%
[4]; Homo sapiens, U-251
  GI50: 2.46 µM
[4]; Homo sapiens, U-251, read-out: LC50
  CC50: > 100 µM
[4]; U251
  TGI: 2.53E−5 Molar
[4]; U251, Log10 Concentration −4.0 Molar
  Percent Growth: −35%
[4]; U251, Log10 Concentration −5.0 Molar
  Percent Growth: 25%
[4]; U251, Log10 Concentration −6.0 Molar
  Percent Growth: 56%
[4]; U251, Log10 Concentration −7.0 Molar
  Percent Growth: 84%
[4]; U251, Log10 Concentration −8.0 Molar
  Percent Growth: 93%
[5]; Homo sapiens, SK-MEL-2
  GI50: 15.8 µM
[5]; Homo sapiens, SK-MEL-2, read-out: LC50
  CC50: 48.2 µM
[5]; SK-MEL-2
  TGI: 5.94E−8 Molar
[5]; SK-MEL-2, Log10 Concentration −4.0 Molar
  Percent Growth: −64%
[5]; SK-MEL-2, Log10 Concentration −5.0 Molar
  Percent Growth: −20%
[5]; SK-MEL-2, Log10 Concentration −6.0 Molar
  Percent Growth: 67%
[5]; SK-MEL-2, Log10 Concentration −7.0 Molar
  Percent Growth: 84%
[5]; SK-MEL-2, Log10 Concentration −8.0 Molar
  Percent Growth: 98%
[6]; 785-0
  TGI: 2.19E−5 Molar
[6]; 785-0, Log10 Concentration −4.0 Molar
  Percent Growth: −52%
[6]; 785-0, Log10 Concentration −5.0 Molar
  Percent Growth: 27%
[6]; 785-0, Log10 Concentration −6.0 Molar
  Percent Growth: 70%
[6]; 785-0, Log10 Concentration −7.0 Molar
  Percent Growth: 88%
[6]; 785-0, Log10 Concentration −8.0 Molar
  Percent Growth: 69%
[6]; Homo sapiens, 786-0
  GI50: 3.4 µM
[6]; Homo sapiens, 786-0, read-out: LC50
  CC50: 84.7 µM
[7]
  TGI: 1.94E−5 Molar
[7]; Homo sapiens
  GI50: 3.56 µM
[7]; Homo sapiens, read-out: LC50
  CC50: 67.2 µM
[7]; Log10 Concentration −4.0 Molar
  Percent Growth: −66%
[7]; Log10 Concentration −5.0 Molar
  Percent Growth: 27%
[7]; Log10 Concentration −6.0 Molar
  Percent Growth: 79%
[7]; Log10 Concentration −7.0 Molar
  Percent Growth: 93%
[7]; Log10 Concentration −8.0 Molar
  Percent Growth: 97%
[8]; Log10 Concentration −4.0 Molar
  Percent Growth: 1%
[8]; Log10 Concentration −5.0 Molar
  Percent Growth: −47%
[8]; Log10 Concentration −6.0 Molar
  Percent Growth: −21%
[8]; Log10 Concentration −7.0 Molar
  Percent Growth: −3%
[8]; Log10 Concentration −8.0 Molar
  Percent Growth: 1%
[8]; Homo sapiens, CAKI-1
  GI50: < 0.01 µM
[8]; Homo sapiens, CAKI-1, read-out: LC50
  CC50: > 100 µM
[9]; Homo sapiens, RXF 393
  GI50: < 0.01 µM
[9]; Homo sapiens, RXF 393, read-out: LC50
  CC50: 23.2 µM
[9]; RXF 393
  TGI: 2.44E−7 Molar
[9]; RXF 393, Log10 Concentration −4.0 Molar
  Percent Growth: −85%
[9]; RXF 393, Log10 Concentration −5.0 Molar
  Percent Growth: −30%
[9]; RXF 393, Log10 Concentration −6.0 Molar
  Percent Growth: −12%
[9]; RXF 393, Log10 Concentration −7.0 Molar
  Percent Growth: 7%
[9]; RXF 393, Log10 Concentration −8.0 Molar
  Percent Growth: 31%
[10]; BT-549
  TGI: 1.73E−5 Molar
[10]; BT-549, Log10 Concentration −4.0 Molar
  Percent Growth: −85%
[10]; BT-549, Log10 Concentration −5.0 Molar
  Percent Growth: 28%
[10]; BT-549, Log10 Concentration −6.0 Molar
  Percent Growth: 97%
[10]; BT-549, Log10 Concentration −7.0 Molar
  Percent Growth: 116%
[10]; BT-549, Log10 Concentration −8.0 Molar
  Percent Growth: 110%
[10]; Homo sapiens, BT-549
  GI50: 4.82 µM
[10]; Homo sapiens, BT-549, read-out: LC50
  CC50: 488 µM
[11]; COLO 205
  TGI: 1.58E−5 Molar
[11]; COLO 205, Log10 Concentration −4.0 Molar
  Percent Growth: −72%
[11]; COLO 205, Log10 Concentration −5.0 Molar
  Percent Growth: 18%
[11]; COLO 205, Log10 Concentration −6.0 Molar
  Percent Growth: 51%
[11]; COLO 205, Log10 Concentration −7.0 Molar
  Percent Growth: 93%
[11]; COLO 205, Log10 Concentration −8.0 Molar
  Percent Growth: 88%
[11]; Homo sapiens, COLO 205
  GI50: 1.05 µM
[11]; Homo sapiens, COLO 205, read-out: LC50
  CC50: 5.69 µM
[12]; HCC-2998
  TGI: 2.04E−5 Molar
[12]; HCC-2998, Log10 Concentration −4.0 Molar
  Percent Growth: −97%
[12]; HCC-2998, Log10 Concentration −5.0 Molar
  Percent Growth: 43%
[12]; HCC-2998, Log10 Concentration −6.0 Molar
  Percent Growth: 62%
[12]; HCC-2998, Log10 Concentration −7.0 Molar
  Percent Growth: 86%
[12]; HCC-2998, Log10 Concentration −8.0 Molar
  Percent Growth: 85%
[12]; Homo sapiens, HCC 2998
  GI50: 4.33 µM
[12]; Homo sapiens, HCC 2998, read-out: LC50
  CC50: 46.2 µM
[13]; Homo sapiens, OVCAR-5
  GI50: < 0.01 µM
[13]; Homo sapiens, OVCAR-5, read-out: LC50
  CC50: > 100 µM
[13]; OVCAR-5
  TGI: 3.72E−7 Molar
[13]; OVCAR-5, Log10 Concentration −4.0 Molar
  Percent Growth: −50%
[13]; OVCAR-5, Log10 Concentration −5.0 Molar
  Percent Growth: −23%
[13]; OVCAR-5, Log10 Concentration −6.0 Molar
  Percent Growth: −7%
[13]; OVCAR-5, Log10 Concentration −7.0 Molar
  Percent Growth: 10%
[13]; OVCAR-5, Log10 Concentration −8.0 Molar
  Percent Growth: 43%
[14]; Homo sapiens, SK-OV-3
  GI50: 1.82 µM
[14]; Homo sapiens, SK-OV-3, read-out: LC50
  CC50: > 100 µM
[14]; SK-OV-3
  TGI: 2.95E−5 Molar
[14]; SK-OV-3, Log10 Concentration −4.0 Molar
  Percent Growth: −18%
[14]; SK-OV-3, Log10 Concentration −5.0 Molar
  Percent Growth: 16%
[14]; SK-OV-3, Log10 Concentration −6.0 Molar
  Percent Growth: 62%
[14]; SK-OV-3, Log10 Concentration −7.0 Molar
  Percent Growth: 85%
[14]; SK-OV-3, Log10 Concentration −8.0 Molar
  Percent Growth: 96%
[15]; DU-145
  TGI: 2.78E−5 Molar
[15]; DU-145, Log10 Concentration −4.0 Molar
  Percent Growth: −53%
[15]; DU-145, Log10 Concentration −5.0 Molar
  Percent Growth: 42%
[15]; DU-145, Log10 Concentration −6.0 Molar
  Percent Growth: 98%
[15]; DU-145, Log10 Concentration −7.0 Molar
  Percent Growth: 108%
[15]; DU-145, Log10 Concentration −8.0 Molar
  Percent Growth: 108%
[15]; Homo sapiens, DU-145
  GI50: 7.25 µM
[15]; Homo sapiens, DU-145, read-out: LC50
  CC50: 93.3 µM
